Experimental data reported in article PMC10892423 (Pharmaceutics, 2024).
pIC50: −log10 of the molar value. ≈ marks a conversion by molar mass, not a printed value.

Legend:
[1] = tested on: MBL-producing P. aeruginosa clinical isolates; test: MIC by broth microdilution (CLSI); type: cell-based, Pseudomonas aeruginosa; conditions: for MIC: Pseudomonas aeruginosa
Procedure: The DMSO stock solutions of the test compounds were serially diluted to the desired concentrations in CAMHB. Then, 10 μL of the bacterial suspension (5 × 10^5 colony forming units (CFU)/mL) was combined with 200 μL of DMSO stock solutions of the test compounds in 96-well microtiter plates (1% DMSO, final). After the incubation of the plate at 37 °C for 24 h, bacterial growth was visibly evaluated by monitoring the turbidity of the resulting suspension, and the MICs were determined as the lowest concentrations of the test compounds that inhibited the visible growth of the bacteria.

[2] = tested on: MBL-producing P. aeruginosa clinical isolates; test: Broth microdilution checkerboard synergy assay (MIC of ATM in combination); type: cell-based, Pseudomonas aeruginosa; conditions: for MIC of ATM, alone or in combination: Table 4; for MIC Value of ATM, alone or in combination with ARMA: Table 2
[3] = tested on: MBL-producing P. aeruginosa static biofilms; test: Anti-biofilm activity, crystal violet staining; type: cell-based, Pseudomonas aeruginosa; conditions: for Biofilm biomass (OD600): 27 32 mg/L
Description: inhibitor 27 against MBL-producing P. aeruginosa clinical isolates.
1 Biofilm biomass was quantified by crystal violet staining at OD600.2 %-inhibition of biofilm

AmpC = target: T1, AmpC (Escherichia coli, UniProt P00811); test: β-lactamase inhibition, nitrocefin hydrolysis; type: biochemical
T1 construct: made in house
T1 sequence (P00811 20-377): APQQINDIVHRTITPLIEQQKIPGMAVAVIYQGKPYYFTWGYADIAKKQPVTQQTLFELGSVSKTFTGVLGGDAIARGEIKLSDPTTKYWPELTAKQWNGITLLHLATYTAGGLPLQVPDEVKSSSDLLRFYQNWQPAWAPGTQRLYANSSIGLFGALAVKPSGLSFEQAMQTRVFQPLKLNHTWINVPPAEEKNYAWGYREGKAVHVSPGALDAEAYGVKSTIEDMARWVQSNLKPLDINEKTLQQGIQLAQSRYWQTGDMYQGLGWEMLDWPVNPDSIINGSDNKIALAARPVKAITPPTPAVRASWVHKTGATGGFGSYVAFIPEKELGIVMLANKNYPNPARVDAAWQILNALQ
Description: (§1) Recombinant AmpC from Escherichia coli was produced according to a previously reported protocol. KPC-2 and NDM-1 […] were purchased from LifeSpan Biosciences, Inc. (Lynnwood, WA, USA) (LS-G26598) and RayBiotech, Inc. (Peachtree Corners, GA, USA) (230-00554), respectively. Genes encoding OXA-48 (residues 23–265) and VIM-2 (residues 27–266) were custom-synthesized (Bioneer Inc., Seoul, Republic of Korea) and expressed as previously described. The β-lactamase inhibitory activity of the title compounds was then determined according to the previously reported methods. Briefly, equal volumes (100 μL) of the title compounds (70–0.1 μM in PBS) and diluted enzyme stock were mixed (final concentration 2% of DMSO in 200 μL) in 96-well plates, which were then incubated at 37 °C for 20 min. The incubated mixture was added to each well containing substrates (nitrocefin for AmpC, KPC-2, OXA-48, and VIM-2; and imipenem for NDM-1) of final concentrations of 70 μM for nitrocefin and 100 μM for imipenem. Substrate hydrolysis was monitored at 486 nm (nitrocefin) or 300 nm (imipenem) for 15 min, using a Cytation 5 imaging multimode reader (BioTek Instruments Inc., Winooski, VT, USA). At the plateau level of hydrolysis, the corresponding rates of hydrolysis were compared to those obtained without inhibitors (100%) to determine the percentage of enzyme inhibition at each concentration of the title compounds. The IC50 values of the compounds were derived from sigmoidal dose–response curves, using GraphPad Prism 5 (GraphPad Software, Boston, MA, USA).

KPC-2 = target: T2, KPC-2 (Klebsiella pneumoniae, UniProt Q9F663); test: β-lactamase inhibition, nitrocefin hydrolysis; type: biochemical; conditions: nitrocefin substrate; read-out: β-Lactamases, IC50 KPC-2
T2 construct: purchased LifeSpan Biosciences, Inc. LS-G26598
T2 sequence (Q9F663 25-293, looked up): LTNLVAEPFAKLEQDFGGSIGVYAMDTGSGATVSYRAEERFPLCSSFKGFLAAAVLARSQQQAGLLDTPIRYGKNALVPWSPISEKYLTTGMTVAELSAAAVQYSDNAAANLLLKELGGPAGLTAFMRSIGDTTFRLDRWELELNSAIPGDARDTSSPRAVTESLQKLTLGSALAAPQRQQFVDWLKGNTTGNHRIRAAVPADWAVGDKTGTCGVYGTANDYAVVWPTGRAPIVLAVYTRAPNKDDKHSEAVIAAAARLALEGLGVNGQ
Description: as §1

OXA-48 = target: T3, OXA-48 (Klebsiella pneumoniae, UniProt Q6XEC0); test: β-lactamase inhibition, nitrocefin hydrolysis; type: biochemical; conditions: nitrocefin substrate; read-out: β-Lactamases, IC50 OXA-48
T3 construct: Genes encoding OXA-48 (residues 23–265) and VIM-2 (residues 27–266) were custom-synthesized; made in house
T3 sequence (Q6XEC0 23-265 limits assumed): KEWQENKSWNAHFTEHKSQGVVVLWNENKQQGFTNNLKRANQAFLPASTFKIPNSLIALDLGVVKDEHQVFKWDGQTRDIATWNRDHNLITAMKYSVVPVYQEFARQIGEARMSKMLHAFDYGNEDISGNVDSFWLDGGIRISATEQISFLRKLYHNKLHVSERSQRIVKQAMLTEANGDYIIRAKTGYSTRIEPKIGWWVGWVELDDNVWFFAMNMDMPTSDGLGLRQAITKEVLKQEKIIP
Description: as §1

VIM-2 = target: T4, VIM-2 (Escherichia coli, UniProt Q5U7L7); test: β-lactamase inhibition, nitrocefin hydrolysis; type: biochemical; conditions: nitrocefin substrate; read-out: β-Lactamases, IC50 VIM-2
T4 construct: Genes encoding OXA-48 (residues 23–265) and VIM-2 (residues 27–266) were custom-synthesized; made in house
Description: as §1

NDM-1 = target: T5, NDM-1 (Klebsiella pneumoniae, UniProt C7C422); test: β-lactamase inhibition, imipenem hydrolysis; type: biochemical; conditions: imipenem substrate; read-out: β-Lactamases, IC50 NDM-1
T5 construct: purchased RayBiotech, Inc. 230-00554
T5 sequence (C7C422 29-270, looked up, species assumed): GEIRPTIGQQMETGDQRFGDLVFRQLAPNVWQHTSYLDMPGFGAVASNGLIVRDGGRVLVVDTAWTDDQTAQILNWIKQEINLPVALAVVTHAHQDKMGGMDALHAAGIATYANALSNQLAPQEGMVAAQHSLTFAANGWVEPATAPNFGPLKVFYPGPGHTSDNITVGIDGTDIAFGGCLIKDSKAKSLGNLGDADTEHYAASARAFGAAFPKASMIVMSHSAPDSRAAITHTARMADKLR
Description: as §1

C[C@H]1[C@H](NC(=O)/C(=N\OC(C)(C)C(=O)O)c2csc(N)n2)C(=O)N1S(=O)(=O)O [ATM, aztreonam]
ATM MICs relative to the CLSI antibiotic susceptibility breakpoint (1 mg/L) ([1]; 21 MBL-producing P. aeruginosa strains): 8–64 times higher
MIC ([1]; PA-001, blaNDM): 32 µg/mL (≈ 73.5 µM)
MIC ([1]; PA-002, blaIMP): 64 µg/mL (≈ 147 µM)
MIC ([1]; PA-007, blaNDM): 16 µg/mL (≈ 36.7 µM)
MIC ([1]; PA-008, blaNDM): 16 µg/mL (≈ 36.7 µM)
MIC ([1]; PA-011, blaNDM): 16 µg/mL (≈ 36.7 µM)
MIC ([1]; PA-012, blaNDM): 16 µg/mL (≈ 36.7 µM)
MIC ([1]; PA-016, blaIMP): 64 µg/mL (≈ 147 µM)
MIC ([1]; PA-017, blaNDM): 16 µg/mL (≈ 36.7 µM)
MIC ([1]; PA-019, blaNDM): 16 µg/mL (≈ 36.7 µM)
MIC ([1]; PA-020, blaNDM): 16 µg/mL (≈ 36.7 µM)
MIC ([1]; PA-023, blaNDM): 16 µg/mL (≈ 36.7 µM)
MIC ([1]; PA-025, blaNDM): 16 µg/mL (≈ 36.7 µM)
MIC ([1]; PA-027, blaIMP): 32 µg/mL (≈ 73.5 µM)
MIC ([1]; PA-028, blaNDM): 8 µg/mL (≈ 18.4 µM)
MIC ([1]; PA-029, blaIMP): 64 µg/mL (≈ 147 µM)
MIC ([1]; PA-030, blaIMP): 64 µg/mL (≈ 147 µM)
MIC ([1]; PA-034, blaNDM): 16 µg/mL (≈ 36.7 µM)
MIC ([1]; PA-036, blaNDM): 16 µg/mL (≈ 36.7 µM)
MIC ([1]; PA-038, blaNDM): 16 µg/mL (≈ 36.7 µM)
MIC ([1]; PA-039, blaNDM): 16 µg/mL (≈ 36.7 µM)
MIC ([1]; PA-044, blaNDM): 16 µg/mL (≈ 36.7 µM)
MIC of ATM, alone or in combination ([2]; PA-001, blaNDM): 32 µg/mL
MIC Value of ATM, alone or in combination with ARMA ([2]; PA-002, blaIMP): 64 µg/mL
MIC of ATM, alone or in combination ([2]; PA-002, blaIMP): 64 µg/mL
MIC Value of ATM, alone or in combination with ARMA ([2]; PA-003, blaVIM): 32 µg/mL
MIC of ATM, alone or in combination ([2]; PA-007, blaNDM): 16 µg/mL
MIC of ATM, alone or in combination ([2]; PA-008, blaNDM): 16 µg/mL
MIC of ATM, alone or in combination ([2]; PA-011, blaNDM): 16 µg/mL
MIC of ATM, alone or in combination ([2]; PA-012, blaNDM): 16 µg/mL
MIC of ATM, alone or in combination ([2]; PA-016, blaIMP): 64 µg/mL
MIC of ATM, alone or in combination ([2]; PA-017, blaNDM): 16 µg/mL
MIC of ATM, alone or in combination ([2]; PA-019, blaNDM): 16 µg/mL
MIC of ATM, alone or in combination ([2]; PA-020, blaNDM): 16 µg/mL
MIC of ATM, alone or in combination ([2]; PA-023, blaNDM): 16 µg/mL
MIC Value of ATM, alone or in combination with ARMA ([2]; PA-025, blaNDM): 16 µg/mL
MIC of ATM, alone or in combination ([2]; PA-025, blaNDM): 16 µg/mL
MIC of ATM, alone or in combination ([2]; PA-027, blaIMP): 32 µg/mL
MIC of ATM, alone or in combination ([2]; PA-028, blaNDM): 8 µg/mL
MIC of ATM, alone or in combination ([2]; PA-029, blaIMP): 64 µg/mL
MIC of ATM, alone or in combination ([2]; PA-030, blaIMP): 64 µg/mL
MIC of ATM, alone or in combination ([2]; PA-034, blaNDM): 16 µg/mL
MIC of ATM, alone or in combination ([2]; PA-036, blaNDM): 16 µg/mL
MIC Value of ATM, alone or in combination with ARMA ([2]; PA-038, blaNDM): 16 µg/mL
MIC of ATM, alone or in combination ([2]; PA-038, blaNDM): 16 µg/mL
MIC of ATM, alone or in combination ([2]; PA-039, blaNDM): 16 µg/mL
MIC of ATM, alone or in combination ([2]; PA-044, blaNDM): 16 µg/mL
inhibition of biofilm formation ([3]; 1/2 × MIC ATM alone): no significant inhibition of biofilm formation
Biofilm biomass (OD600) ([3]; PA-007, blaNDM, ATM 1/2 MIC (8 mg/L)): 1.03
Biofilm biomass (OD600) ([3]; PA-011, blaNDM, ATM 1/2 MIC (8 mg/L)): 0.51
Biofilm biomass (OD600) ([3]; PA-012, blaNDM, ATM 1/2 MIC (8 mg/L)): 0.23
Biofilm biomass (OD600) ([3]; PA-030, blaIMP, ATM 1/2 MIC (32 mg/L)): 1.84

NC(=O)[C@@H]1CC[C@@H]2CN1C(=O)N2OS(=O)(=O)O [AVI, avibactam]
concentration at which ATM-potentiating activity was observed ([2]; four representative MBL-producing P. aeruginosa strains (Table 2)): 128 mg/L

O=c1c(OCC2CCCC2)c(-c2ccc(F)c(F)c2)oc2cc(O)cc(O)c12 [Compound 28]
pIC50 (AmpC): < 4.30
pIC50 (KPC-2): 4.39
pIC50 (OXA-48): 5.04
pIC50 (VIM-2): 5.11
pIC50 (NDM-1): 4.66

C[N+](C)(CCOc1c(-c2ccc(F)c(F)c2)oc2cc(O)cc(O)c2c1=O)CC(=O)[O-] [Compound 15]
pIC50 (AmpC): < 4.30
pIC50 (KPC-2): < 4.30
pIC50 (OXA-48): < 4.00
pIC50 (VIM-2): < 4.00
pIC50 (NDM-1): < 4.30

CC(C)(C)c1ccc(COc2c(-c3ccc(F)c(F)c3)oc3cc(O)cc(O)c3c2=O)cc1 [Compound 6]
pIC50 (AmpC): < 4.30
pIC50 (KPC-2): < 4.30
pIC50 (OXA-48): 4.42
pIC50 (VIM-2): < 4.00
pIC50 (NDM-1): 4.85

O=c1c(OCCN2CCOCC2)c(-c2ccc(F)c(F)c2)oc2cc(O)cc(O)c12 [Compound 20]
pIC50 (AmpC): < 4.30
pIC50 (KPC-2): < 4.30
pIC50 (OXA-48): < 4.00
pIC50 (VIM-2): < 4.00
pIC50 (NDM-1): < 4.30

O=c1c(OCCc2cccs2)c(-c2ccc(F)c(F)c2)oc2cc(O)cc(O)c12 [Compound 12]
pIC50 (AmpC): < 4.30
pIC50 (KPC-2): < 4.30
pIC50 (OXA-48): < 4.00
pIC50 (VIM-2): < 4.00
pIC50 (NDM-1): < 4.30

O=c1c(OCCCC2CCCC2)c(-c2ccc(F)c(F)c2)oc2cc(O)cc(O)c12 [Compound 29]
pIC50 (AmpC): < 4.30
pIC50 (KPC-2): 4.55
pIC50 (OXA-48): 5.26
pIC50 (VIM-2): 5.29
pIC50 (NDM-1): 4.57
